Values of other authors in patent US9854827B2, “Sweetener” (Tate & Lyle Ingredients Americas LLC, priority 2013, dated 2018).

Details: % of the sweetness of sucrose

## O=C(CO)C(O)C(O)C(O)CO (stereo not shown) [Allulose, allulose]
  sweetness relative to sucrose: around 70%
